Results from BigSolDB 2.1.

O=P1(Oc2ccccc2)OCC2(CO1)COP(=O)(Oc1ccccc1)OC2 (centres undefined)
Details | solubility (mole fraction)
in 1,4-dioxane, 293.26 K | 0.00132
in 1,4-dioxane, 298.45 K | 0.00152
in 1,4-dioxane, 303.26 K | 0.00181
in 1,4-dioxane, 308.67 K | 0.00214
in 1,4-dioxane, 313.24 K | 0.00253
in 1,4-dioxane, 318.36 K | 0.00294
in 1,4-dioxane, 323.35 K | 0.00335
in 1,4-dioxane, 328.23 K | 0.00383
in 1,4-dioxane, 333.36 K | 0.00438
in 1,4-dioxane, 338.25 K | 0.00499
in 2-butanone, 293.15 K | 0.00399
in 2-butanone, 298.16 K | 0.00446
in 2-butanone, 303.17 K | 0.00506
in 2-butanone, 308.18 K | 0.00575
in 2-butanone, 313.16 K | 0.00638
in 2-butanone, 318.19 K | 0.00733
in 2-butanone, 323.15 K | 0.00809
in 2-ethoxyethanol, 293.24 K | 0.00325
in 2-ethoxyethanol, 298.24 K | 0.00392
in 2-ethoxyethanol, 303.16 K | 0.00455
in 2-ethoxyethanol, 308.17 K | 0.00543
in 2-ethoxyethanol, 313.23 K | 0.00637
in 2-ethoxyethanol, 318.16 K | 0.00756
in 2-ethoxyethanol, 323.18 K | 0.00897
in 2-ethoxyethanol, 328.15 K | 0.0104
in 2-ethoxyethanol, 333.16 K | 0.0122
in 2-ethoxyethanol, 338.17 K | 0.014
in 2-ethoxyethanol, 343.16 K | 0.0161
in 2-ethoxyethanol, 348.17 K | 0.0185
in 2-ethoxyethanol, 353.16 K | 0.0215
in 2-ethoxyethanol, 358.16 K | 0.0244
in 2-ethoxyethanol, 363.17 K | 0.0277
in 2-ethoxyethanol, 368.16 K | 0.0319
in THF, 293.53 K | 0.00524
in THF, 298.16 K | 0.00615
in THF, 303.49 K | 0.00727
in THF, 308.25 K | 0.00845
in THF, 313.35 K | 0.00996
in THF, 318.31 K | 0.0115
in THF, 323.35 K | 0.0133
in THF, 328.46 K | 0.0153
in acetone, 293.17 K | 0.00237
in acetone, 298.16 K | 0.00275
in acetone, 303.26 K | 0.00322
in acetone, 308.57 K | 0.00371
in acetone, 313.24 K | 0.00421
in acetone, 318.07 K | 0.00479
in acetone, 323.25 K | 0.00542
in acetone, 328.36 K | 0.00622
in acetonitrile, 293.31 K | 0.00156
in acetonitrile, 298.17 K | 0.00187
in acetonitrile, 303.26 K | 0.00223
in acetonitrile, 308.57 K | 0.00273
in acetonitrile, 313.35 K | 0.00318
in acetonitrile, 318.24 K | 0.00375
in acetonitrile, 323.36 K | 0.00438
in acetonitrile, 328.27 K | 0.00522
in acetonitrile, 333.35 K | 0.00614
in acetonitrile, 338.56 K | 0.00738
in acetonitrile, 343.44 K | 0.00841
in benzene, 293.17 K | 0.00119
in benzene, 298.16 K | 0.00121
in benzene, 304.76 K | 0.00124
in benzene, 308.37 K | 0.00127
in benzene, 313.55 K | 0.00129
in benzene, 318.26 K | 0.00133
in benzene, 323.24 K | 0.00136
in benzene, 328.43 K | 0.00138
in benzene, 333.46 K | 0.00141
in benzene, 338.34 K | 0.00143
in benzene, 343.26 K | 0.00145
in benzene, 348.35 K | 0.00147
in chloroform, 293.25 K | 0.00224
in chloroform, 298.17 K | 0.00319
in chloroform, 303.25 K | 0.00436
in chloroform, 308.56 K | 0.00611
in chloroform, 313.25 K | 0.00806
in chloroform, 318.25 K | 0.0106
in chloroform, 323.04 K | 0.0139
in chloroform, 328.35 K | 0.0188
in chloroform, 333.13 K | 0.0234
in dichloromethane, 293.16 K | 0.00103
in dichloromethane, 299.22 K | 0.00127
in dichloromethane, 303.86 K | 0.00146
in dichloromethane, 307.6 K | 0.00167
in diethyl ether, 291.95 K | 0.00179
in diethyl ether, 295.37 K | 0.00204
in diethyl ether, 299.26 K | 0.00234
in diethyl ether, 303.55 K | 0.00275
in ethanol, 298.16 K | 0.00136
in ethanol, 303.15 K | 0.00157
in ethanol, 308.16 K | 0.00187
in ethanol, 313.14 K | 0.00218
in ethanol, 318.16 K | 0.00246
in ethanol, 323.16 K | 0.00288
in ethanol, 328.17 K | 0.00329
in ethanol, 333.16 K | 0.00383
in ethanol, 338.16 K | 0.00426
in ethanol, 343.15 K | 0.00485
in ethyl acetate, 293.25 K | 0.00107
in ethyl acetate, 298.46 K | 0.00132
in ethyl acetate, 303.27 K | 0.00158
in ethyl acetate, 308.66 K | 0.00193
in ethyl acetate, 313.27 K | 0.0023
in ethyl acetate, 318.35 K | 0.00281
in ethyl acetate, 323.35 K | 0.00334
in ethyl acetate, 328.26 K | 0.00392
in ethyl acetate, 333.37 K | 0.00459
in ethyl acetate, 338.26 K | 0.00539
in methanol, 293.24 K | 0.00271
in methanol, 298.24 K | 0.00298
in methanol, 303.16 K | 0.00329
in methanol, 308.17 K | 0.00365
in methanol, 313.23 K | 0.00401
in methanol, 318.16 K | 0.00443
in methanol, 323.15 K | 0.00483
in pyridine, 293.43 K | 0.00813
in pyridine, 298.35 K | 0.00885
in pyridine, 303.51 K | 0.00964
in pyridine, 308.35 K | 0.0104
in pyridine, 313.35 K | 0.0114
in pyridine, 318.31 K | 0.0123
in pyridine, 323.35 K | 0.0132
in pyridine, 328.45 K | 0.0141
in toluene, 298.17 K | 0.00115
in toluene, 303.25 K | 0.00143
in toluene, 308.56 K | 0.00185
in toluene, 313.34 K | 0.00229
in toluene, 318.26 K | 0.00285
in toluene, 323.37 K | 0.00352
in toluene, 328.25 K | 0.00424
in toluene, 333.34 K | 0.00536
in toluene, 338.56 K | 0.00646
in toluene, 343.45 K | 0.00781
in water, 293.18 K | 0.00014
in water, 298.77 K | 0.0002
in water, 308.37 K | 0.0003
in water, 313.56 K | 0.00037
in water, 318.25 K | 0.0005
in water, 323.24 K | 0.00064
in water, 328.43 K | 0.00086
in water, 333.45 K | 0.00116
in water, 338.36 K | 0.00148
in water, 343.26 K | 0.00188
in water, 348.35 K | 0.00241
in water, 353.24 K | 0.00295
in water, 358.25 K | 0.00371
in water, 363.36 K | 0.00477
in water, 368.25 K | 0.00591

COc1ccc(P(=O)(c2ccc(OC)cc2)c2ccc(OC)cc2)cc1
Details | solubility (mole fraction)
in 2-butanone, 288.15 K | 0.00567
in 2-butanone, 293.16 K | 0.00642
in 2-butanone, 298.17 K | 0.00725
in 2-butanone, 303.18 K | 0.00814
in 2-butanone, 308.14 K | 0.00907
in 2-butanone, 313.16 K | 0.0102
in 2-butanone, 318.17 K | 0.0112
in 2-butanone, 323.16 K | 0.0125
in 2-butanone, 328.17 K | 0.0139
in 2-butanone, 333.16 K | 0.0153
in 2-ethoxyethanol, 293.16 K | 0.00573
in 2-ethoxyethanol, 298.17 K | 0.00716
in 2-ethoxyethanol, 303.18 K | 0.00919
in 2-ethoxyethanol, 308.14 K | 0.0114
in 2-ethoxyethanol, 313.16 K | 0.0143
in 2-ethoxyethanol, 318.17 K | 0.0175
in 2-ethoxyethanol, 323.16 K | 0.0223
in 2-ethoxyethanol, 328.17 K | 0.0276
in 2-ethoxyethanol, 333.17 K | 0.033
in 2-ethoxyethanol, 338.25 K | 0.0401
in 2-ethoxyethanol, 343.17 K | 0.0482
in benzene, 293.16 K | 0.00031
in benzene, 298.17 K | 0.00039
in benzene, 303.18 K | 0.00048
in benzene, 308.14 K | 0.00061
in benzene, 313.16 K | 0.00076
in benzene, 318.17 K | 0.00094
in benzene, 323.16 K | 0.00112
in cyclohexane, 298.15 K | 0.00053
in cyclohexane, 304.05 K | 0.00082
in cyclohexane, 308.32 K | 0.00113
in cyclohexane, 313.95 K | 0.00166
in cyclohexane, 318.45 K | 0.00229
in cyclohexane, 323.65 K | 0.00322
in cyclohexane, 328.45 K | 0.00455
in cyclohexane, 332.85 K | 0.00589
in cyclohexane, 337.65 K | 0.00806
in diethyl ether, 293.16 K | 0.00607
in diethyl ether, 296.17 K | 0.00739
in diethyl ether, 299.18 K | 0.00929
in diethyl ether, 301.16 K | 0.0106
in diethyl ether, 303.15 K | 0.0118
in ethanol, 298.25 K | 0.00037
in ethanol, 303.75 K | 0.00049
in ethanol, 308.05 K | 0.00067
in ethanol, 313.35 K | 0.00102
in ethanol, 317.75 K | 0.00128
in ethanol, 322.35 K | 0.00168
in ethanol, 328.15 K | 0.00236
in methanol, 293.35 K | 0.00019
in methanol, 298.25 K | 0.00024
in methanol, 303.15 K | 0.00031
in methanol, 308.05 K | 0.00042
in methanol, 313.15 K | 0.00056
in methanol, 318.15 K | 0.00071
in methanol, 322.65 K | 0.00098
in toluene, 293.16 K | 0.00036
in toluene, 298.17 K | 0.00045
in toluene, 303.18 K | 0.00055
in toluene, 308.14 K | 0.00066
in toluene, 313.16 K | 0.00083
in toluene, 318.17 K | 0.00099
in toluene, 323.16 K | 0.00121
in toluene, 328.17 K | 0.00143
in toluene, 333.15 K | 0.00169
